Reference: patent US11185593B2, “Alkylating agent for alkylating target with driver oncogene mutation” (Chiba Prefecture, priority 2013, dated 2021)
pIC50: −log10 of the molar value.

Key:
Type in all cases: cell-based
MCF7 cells = assay: Cytotoxicity test, Cell Counting Kit-8, 72 hours; conditions: Homo sapiens, MCF7, breast cancer cells, 0.3 to 300 nM
Experimental: (§1) The experiment was carried out in the same manner as that in the case of using KR12. The cells used in the experiment were MCF7 cells and MDA-MB-231 cells. These cells were cultured in a DMEM, 10% FBS and 1% Pen/St medium, and in an RPMI1640, 10% FBS and 1% Pen/St medium, respectively. The cells of each type were seeded in each well of a 96-well plate at a cell density of 1000 cells/50 μl/well, and were then cultured under conditions of 37° C., 5% CO2, and saturated humidity for 24 hours. Thereafter, a reagent was diluted with a medium (final concentration: 1, 3, 10, 30, and 100 nM), and the diluted reagent was then added to the cultured cells in an amount of 50 μl/well, and the obtained mixture was then blended. The thus obtained mixture was cultured again under conditions of 37° C., 5% CO2, and saturated humidity for 72 hours. Thereafter, Cell Counting Kit-8 (DOJINDO) was added to the obtained culture in an amount of 10 μl/well, and the thus obtained mixture was blended and was then cultured under conditions of 37° C., 5% CO2, and saturated humidity for 2 hours. The absorbance was measured using Microplate Reader MTP-310 Lab (COLONA ELECTORIC), and the IC50 value was then calculated.

NB69 cells = assay: Cell growth measurement test, 72 hours; conditions: Homo sapiens, NB69, without MYCN amplification, 0.3 to 300 nM
HDF cells = assay: Cell growth measurement test, 72 hours; conditions: fibroblasts, 0.3 to 300 nM
IMR-32 cells = assay: Cytotoxicity test, Cell Counting Kit-8, 72 hours; conditions: Homo sapiens
Experimental: as §1, with “Kelly cells, SK-N-SH cells, IMR-32 cells, SK-N-AS cells,” for “MCF7 cells”
as §1, with “IMR-32” for “MCF7”, “TGW” for “MDA-MB-231”

HT29 cells = assay: Cell growth measurement test, 72 hours; conditions: Homo sapiens, HT-29, HT29, colon cancer cells, 0.3 to 300 nM
TGW cells = assay: Cytotoxicity test, Cell Counting Kit-8, 72 hours
Experimental: as §1, with “IMR-32” for “MCF7”, “TGW” for “MDA-MB-231”

[1] = tested on: IMR-32 cells (MYCN, 25 copies); assay: Cell growth curve, Incucyte culture time-lapse microscope; conditions: IMR-32, 1 to 100 nM, FIG. 32
Experimental: (§2) The cells were seeded in each well of a 96-well plate at a cell density of 1000 cells/50 μl/well, and were then cultured under conditions of 37° C., 5% CO2, and saturated humidity for 24 hours. On the following day, the culture media was replaced with a culture media, to which a DMSO control, or 1 nM, 3 nM, 10 nM, 30 nM or 100 nM MYCNA1 had been added, and the resulting cells were then observed under an Incucyte culture time-lapse microscope (Essen Instruments, Ann Arbor, Mich.) every 6 hours. A growth curve was produced from an imaging plate using Incucyte system (Essen Instruments, Ann Arbor, Mich.). The cells used in the experiment were neuroblastoma cell lines having MYCN amplification, IMR-32 cells (MYCN, 25 copies) and TGW cells (MYCN, 60 copies). The cells of each type were cultured in a DMEM, 10% FBS and 1% Pen/St medium, and in an RPMI1640, 10% FBS and 1% Pen/St medium, respectively.

[2] = tested on: TGW cells (MYCN, 60 copies); assay: as above; conditions: 1 to 100 nM, FIG. 32
Experimental: as §2

SMILES | pIC50 (MCF7 cells) | pIC50 (NB69 cells) | pIC50 (HDF cells) | pIC50 (IMR-32 cells; IMR-32, IMR32, with MYCN amplification, 0.3 to 300 nM) | pIC50 (HT29 cells) | pIC50 (TGW cells; TGW, with MYCN amplification, 0.3 to 300 nM) | cell growth (growth curve) [1] | cell growth (growth curve) [2] | pIC50 (IMR-32 cells; IMR-32 cells, 1 to 100 nM, FIG. 33) | pIC50 (TGW cells; TGW cells, 1 to 100 nM, FIG. 33)
CC(=O)Nc1cn(C)c(C(=O)Nc2cn(C)c(C(=O)Nc3cn(C)c(C(=O)NCCC(=O)Nc4cn(C)c(C(=O)Nc5cc(C(=O)Nc6cc(C(=O)NCCCC(=O)Nc7cn(C)c(C(=O)Nc8cn(C)c(C(=O)Nc9cc(C(=O)NCCC(=O)Nc%10cc(C(=O)Nc%11ccc%12[nH]c(C(=O)N%13CC(CCl)c%14c%13cc(O)c%13ccccc%14%13)cc%12c%11)n(C)c%10)n(C)c9)n8)n7)n(C)c6)n(C)c5)n4)n3)n2)n1 (stereo not shown) [MYCNA3] | 6.82 | 7.11 | 7.25 | 8.96 | 6.62 | 8.43 |  |  |  | 
CC(=O)Nc1cn(C)c(C(=O)Nc2cc(C(=O)Nc3cc(C(=O)NCCC(=O)Nc4cn(C)c(C(=O)Nc5cc(C(=O)NCCCC(=O)Nc6cc(C(=O)Nc7cc(C(=O)NCCC(=O)Nc8cc(C(=O)Nc9ccc%10[nH]c(C(=O)N%11CC(CCl)c%12c%11cc(O)c%11ccccc%12%11)cc%10c9)n(C)c8)n(C)c7)n(C)c6)n(C)c5)n4)n(C)c3)n(C)c2)n1 (stereo not shown) [MYCNA1] |  |  |  |  |  |  | suppressed by MYCNA1 in a concentration-dependent manner | suppressed by MYCNA1 in a concentration-dependent manner | 8.01 | 7.89
